Measured values reported in paper PMC9101087, “A Sensitive LC-MS/MS Method for the Simultaneous Determination of Two Thia-Analogous Indirubin N-Glycosides and Indirubin-3′-Monoxime in Plasma and Cell Culture Medium” (Molecules, 2022).

How the values were obtained:
U251MG (glioblastoma) = assay: WST-1 cell viability assay, 48-h incubation; assay type: cell-based, human; settings: WST-1, 48 h, vs. vehicle, even at 3 µM in some (unnamed) cell lines
Procedure: (§1) To test the biological activity of the thia-analogous indirubin N-glycosides that are the focus of the present work, the effects of KD87 and KD85 and their non-glycosylated parent compound KD88 on the viability of various tumor cell lines were initially investigated. The corresponding analyses were performed using the cell lines A375 (melanoma), A431 (skin squamous cell carcinoma), A549 (non-small cell lung carcinoma), U251MG (glioblastoma), and U138MG (glioblastoma).
(§2) Figure 2 Effect of increasing concentrations of KD87 (A), KD85 (B), and KD88 (C) on viability of various cancer cells. A375 (melanoma; black columns), A431 (skin squamous cell carcinoma; dark grey columns), A549 (non-small cell lung carcinoma; grey columns), U251MG (glioblastoma; light grey columns), or U138MG (glioblastoma; white columns) were incubated for 48 h with the appropriate compounds or vehicle followed by determination of cell viability by WST-1 assay. Percent control represents comparison with vehicle-treated cells (100%) in the absence of test substance. Values are mean ± standard error of the mean (SEM) of n = 15 in all panels, except n = 14 for A375 and A431 cells in panel B and n = 14–15 for A375 cells in panel C, from four (A375, A431) or five (A549, U251MG, U138MG) independent experiments. * p ≤ 0.05, ** p ≤ 0.01, *** p ≤ 0.001, **** p ≤ 0.0001 vs. vehicle control; one-way ANOVA with Dunnett’s post hoc test.
(§3) The human melanoma cell line A375 (#300110; RRID:CVCL_0132) as well as the human skin epidermoid carcinoma cell line A431 (#300112; RRID:CVCL_0037) were purchased from CLS Cell Lines Service GmbH (Eppelheim, Germany). The human glioblastoma cell line U251MG (#09063001; RRID:CVCL_0021) was from Sigma-Aldrich Corporation. The human glioblastoma cell line U138MG (#ACC 291; RRID: CVCL_0020) and the human lung carcinoma cell line A549 (#ACC 107, RRID:CVCL_0023) were purchased from DSMZ (Deutsche Sammlung von Mikroorganismen und Zellkulturen GmbH, Braunschweig, Germany).
(§4) Cells were cultured in high-glucose DMEM (with GlutaMAX™-I: A375, A431; with UltraGlutamine^TM I: A549, U251MG, U138MG) supplemented with 10% heat-inactivated FBS, 100 U/mL penicillin, and 100 μg/mL streptomycin and grown in a humidified incubator at 37 °C and 5% CO2. For viability analyses, cells were seeded in 96-well plates at a density of 5000 cells per well in DMEM containing 10% heat-inactivated FBS and cultured for 24 h. All cell experiments with the specific substances were performed in serum-free DMEM supplemented with 100 U/mL penicillin and 100 μg/mL streptomycin, applied after washing the cells with DPBS. The test substances were dissolved in DMSO. The final concentration of DMSO in the incubation media of test substance- and vehicle-treated cells was 1% (v/v).
(§5) After completion of the 48-h incubation, WST-1 reagent (Sigma, Taufkirchen, Germany) was added to the cells to achieve a final dilution of 1:10, and the cells were incubated for an additional 20 min before absorbance was measured at 450 nm, reference wavelength […], using a microplate reader.

[1] = test system: A431 (skin squamous cell carcinoma); assay: WST-1 cell viability assay, 48-h incubation; assay type: cell-based, human; settings: A431, WST-1, 48 h, vs. vehicle; even at 3 µM in some (unnamed) cell lines
Procedure: as §1, §2, §3, §4, §5

[2] = test system: A549 (non-small cell lung carcinoma); assay: WST-1 cell viability assay, 48-h incubation; assay type: cell-based, human; settings: A549, WST-1, 48 h, vs. vehicle; even at 3 µM in some (unnamed) cell lines
Procedure: as §1, §2, §3, §4, §5

U138MG (glioblastoma) = assay: WST-1 cell viability assay, 48-h incubation; assay type: cell-based, human; settings: WST-1, 48 h, vs. vehicle, even at 3 µM in some (unnamed) cell lines
Procedure: as §1, §2, §3, §4, §5

A375 (melanoma) = assay: WST-1 cell viability assay, 48-h incubation; assay type: cell-based, human; settings: A375, WST-1, 48 h, vs. vehicle; even at 3 µM in some (unnamed) cell lines
Procedure: as §1, §2, §3, §4, §5

[3] = Storage stability in human plasma, LC-MS/MS after plasma precipitation; assay type: in vitro ADME; settings: for Stability 4 °C / Stability AS (autosampler) / Stability −20 °C / Stability BT (benchtop): 24 h; for Stability FT (freeze-thaw): freeze-thaw cycles; for Stability BT (benchtop): room temperature
Procedure: To assess stability, low and high concentrations of all analytes were subjected to different storage conditions. […] For determination of long-term stability, samples were stored in either plasma or DMEM at –80 °C for 90 and 91 days, respectively. To measure short-term stability, samples were stored at room temperature, in an autosampler, at 4 °C, and at –20 °C for 24 h. In addition, freeze-thaw cycles were performed according to FDA guidance for the standard solutions. For comparison, at least three freshly prepared samples were prepared for each concentration level. With the exception of autosampler stability, the internal standard was always added to all samples before sample processing was started.
After mixing the 1.5 µM internal standard and the plasma sample, protein precipitation was commenced. Next, 190 µL of acetonitrile and 50 µL of 0.5 M sulfuric acid buffer were added. The tubes were then shaken at 1400 rpm for 5 min followed by centrifugation at 14,000 rpm for 5 min. Subsequently, 195 µL of the supernatant was transferred to an LC tube and analyzed.
To assess stability, low and high concentrations of all analytes were exposed to different storage conditions. To determine long-term stability, samples were stored in either plasma or DMEM at −80 °C for 90 and 91 days, respectively. To determine short-term stability, samples were stored for 24 h on the bench at room temperature, in the autosampler, at 4 °C, and at −20 °C. In addition, freeze-thaw cycles were performed for the standard solutions according to FDA guidance. At least three freshly prepared samples per concentration level were prepared for comparison. With the exception of the stability test in the autosampler, the internal standard was always added to all samples before sample processing was started. However, to avoid concentration fluctuations due to possible degradation of the analytes, stock solutions were prepared twice a week and stored at −20 °C. Each storage condition was examined in the dark. For all conditions studied, n = 3–6 replicates were prepared.

Stability 4 °C ([3]; 2.0 nM) [%] | Stability AS (autosampler) ([3]; 2.0 nM) [%] | Stability −20 °C ([3]; 2.0 nM) [%] | Stability FT (freeze-thaw) ([3]; 2.0 nM) [%] | Stability BT (benchtop) ([3]; 2.0 nM) [%] | Stability 4 °C ([3]; 167 nM) [%] | Stability AS (autosampler) ([3]; 167 nM) [%] | Stability −20 °C ([3]; 167 nM) [%] | Stability FT (freeze-thaw) ([3]; 167 nM) [%] | Stability BT (benchtop) ([3]; 167 nM) [%] | SMILES | concentration from which significant cytotoxic effects start (U251MG (glioblastoma)) [µM] | concentration from which significant cytotoxic effects start [1] [µM] | concentration from which significant cytotoxic effects start [2] [µM] | concentration from which significant cytotoxic effects start (U138MG (glioblastoma)) [µM] | concentration from which significant cytotoxic effects start (A375 (melanoma)) [µM]
81.3 ± 3.4 | 97.6 ± 8.0 | 90.1 ± 5.7 | 107.9 ± 4.9 | 57.5 ± 4.1 | 85.5 ± 1.9 | 99.6 ± 4.1 | 96.3 ± 2.3 | 99.5 ± 3.8 | 70.3 ± 3.2 | O=C1/C(=C2/C(=O)N([C@@H]3O[C@H](CO)[C@@H](O)[C@H](O)[C@@H]3O)c3ccccc32)Sc2ccccc21 [KD85, 3-[3′-oxo-benzo[b]thiophene-2′-(Z)-ylidene]-1-(β-D-mannopyranosyl)-oxindole] | ≤ 6 | ≤ 6 | ≤ 6 | ≤ 6 | ≤ 6
81.4 ± 3.1 | 105.7 ± 6.7 | 94.6 ± 2.8 | 98.8 ± 5.6 | 64.3 ± 5.6 | 84.5 ± 2.0 | 99.9 ± 4.8 | 92.6 ± 2.6 | 97.9 ± 4.1 | 75.0 ± 3.5 | O=C1/C(=C2/C(=O)N([C@@H]3O[C@H](CO)[C@@H](O)[C@H](O)[C@H]3O)c3ccccc32)Sc2ccccc21 [KD87, 3-[3′-oxo-benzo[b]thiophen-2′-(Z)-ylidene]-1-(β-D-glucopyranosyl)-oxindole] | ≤ 6 | ≤ 6 | ≤ 6 | ≤ 6 | ≤ 6
